How the values were obtained:
[1] = system: testosterone-stimulated sebum secretion; assay: Inhibition of sebum production in the rat; format: in vivo, rat (castrated male); conditions: 100 μg/rat p.o., daily for 14 days
Protocol: (E) The activity of the compounds I on sebum secretion in rats was determined according to the following procedure. Male rats of approximately 50-60 g body weight were castrated at the age of 21-22 days. One week after this operation the rats were washed in a cleansing solution in order to remove sebum which was excreted prior to the test period. Only the carrier materials used were administered to one group of rats. A further group of rats also simultaneously received 100 μg of testosterone propionate in 0.2 ml of sesame oil per rat and day. To a further group of rats there were administered daily per rat 100 μg of testosterone propionate in 0.2 ml of sesame oil subcutaneously and the test compounds in various dosages in 0.2 ml of propylene glycol orally. The rats were thus-treated for 14 days. On the 15th day the sebum from the skin surface and the pelt was removed by immersing the entire body of the test animals in a determined volume of acetone and bathing therein for 2 minutes. An aliquot of the solvent bath was evaporated and the solid residue was determined gravimetrically. The inhibition of the testosterone-stimulated increase in the serum secretion in comparison to the corresponding values from rats treated only with testosterone propionate was used as the measurement for the activity.

[2] = system: transplantable chondrosarcoma of the rat; assay: Activity on transplantable chondrosarcoma of the rat; format: in vivo, rat (albino rats); conditions: five times per week for 24 days
Protocol: (C) Furthermore, the activity on tumours can be determined on the transplantable chondrosarcoma of the rat according to the following method. The solid tumour of a donor animal is finely minced and suspended in phosphate buffer/sodium chloride solution. 0.5 ml of the 30% tumour suspension is implanted subcutaneously into albino rats.
The transplanted rats are divided into test groups of in each case 8 animals. The test compounds are suspended in arachis oil and administered orally five times per week for 24 days. The tumours are excised and weighed on day 24. The results are expressed in the quotient C/T which is calculated as follows: [formula]

[3] = system: keratin-filled utriculi of the rhino mouse; assay: Anti-keratinizing activity in the rhino mouse; format: in vivo
Text: (A) The antikeratinizing activity can be determined on the rhino mouse model according to the following procedure. The skin of the rhino mouse is characterized by the presence of keratin-filled utriculi of the epidermis and subcutaneous cysts, both of which are derived from hair follicles. The administration of retinoids leads to a hyperproliferation of the epidermis and of the epithelial lining of the utriculi. The thickening of the epidermis and the reduction in the size of the utriculi lead to a normalization of the altered structure of the epithelial layer. The daily topical application of 0.1 ml/cm^2 skin of the rhino mouse of a 3% acetone solution of an active test compound over a period of 3 weeks or the thrice weekly oral administration in arachis oil over a period of weeks leads to a significant proliferation of the epidermis and a striking reduction of the keratin-filled utriculi.

[4] = system: squamous metaplasia of the vaginal epithelium; assay: Antimetaplastic activity in the rat (hormone-induced squamous metaplasia of the vaginal epithelium); format: in vivo, Female Holtzmann rats; conditions: oral; all-trans-retinoic acid = 1; from average effective dosages (Behrens and Karber)
Text: (D) The antimetaplastic activity can also be determined in rats according to the following method. Female Holtzmann rats weighing approximately 100 g are ovarectomized under Thiogenal narcosis after an adaptation period of 8 days and are used in the test after a further 14 days. In each case two animals are placed in a cage with free access to feed which contains approximately 2000 IU of vitamin A determined analytically. Prior to the oral administration of the test compound the animals are treated subcutaneously each day on 6 successive days with 1 μg of estradiol benzoate and 250 μg of testosterone propionate dissolved in 0.1 ml of sesame oil. […] 2 days after the oral administration of the test substance the result of the reaction is again read off on the vaginal epithelium. The area method according to Behrens and Karber is employed to calculate the average effective dosages.

[5] = system: chemically-induced breast tumours; assay: Prophylaxis of chemically-induced breast tumours (dimethylbenz(a)anthracene); format: in vivo, Female Sprague-Dawley rats; conditions: 11 weeks
Protocol: (B) The activity in the prevention of chemically-induced breast tumours can be determined according to the following procedure. Female Sprague-Dawley rats are kept under temperature-controlled and light-controlled conditions, with free access to drinking water and feed. At the age of 50 days 15 mg of dimethylbenz(a)anthracene disolved in arachis oil are administered to each rat by means of a probang. The treatment with the test compounds begins 1 day after the administration of the carcinogen. The body weights of the test animals are recorded and the tumours are palpated weekly and measured with a vernier caliper. The volumes are calculated according to the formula [formula] in which D is the larger diameter of the tumour ellipsoid and d is the smaller diameter of the tumour ellipsoid. After 11 weeks the test is terminated and evaluated. In this test there are used in addition to 30 control animals, which receive exclusively normal feed the following two groups of test animals:
1. 33 rats to which are administered daily 30 mg/kg of test compound mixed with the feed.
2. 36 rats to which are administered daily 90 mg/kg of test compound mixed with the feed.

SMILES | Inhibition of testosterone-stimulated sebum secretion [1] | Quotient C/T of tumour weight of the untreated control animals and of the treated animals ([2]; 120 mg/kg p.o.) | Diameter of the utriculus ([3]; 133 mg/kg p.o.) | Reduction (of the diameter of the utriculus) ([3]; 133 mg/kg p.o.) | Diameter of the utriculus ([3]; 400 mg/kg p.o.) | Reduction (of the diameter of the utriculus) ([3]; 400 mg/kg p.o.) | Relative activity [4] | Average number of tumours per rat ([5]; 30 mg/kg p.o. daily in feed) | Average tumour volume per rat in mm^3 [% of controls] ([5]; 30 mg/kg p.o. daily in feed) | Rats with tumours ([5]; 30 mg/kg p.o. daily in feed) | Average number of tumours per rat ([5]; 90 mg/kg p.o. daily in feed) | Average tumour volume per rat in mm^3 [% of controls] ([5]; 90 mg/kg p.o. daily in feed) | Rats with tumours ([5]; 90 mg/kg p.o. daily in feed) | Quotient C/T of tumour weight of the untreated control animals and of the treated animals ([2]; 40 mg/kg p.o.)
CCCCCCCCc1cc2c(cc1C(C)=Cc1ccccc1)C(C)(C)CCC2(C)C [g, 1,2,3,4-tetrahydro-1,1,4,4-tetramethyl-6-(α-methylstyryl)-7-octylnaphthalene] | 71% |  |  |  |  |  |  |  |  |  |  |  |  | 
C/C(=C\c1ccc(Cl)cc1)c1ccc2c(c1)C(C)(C)CCC2(C)C [f, (E)-6-[p-chloro-α-methylstyryl]-1,2,3,4-tetrahydro-1,1,4,4-tetramethylnaphthalene] |  | 1.6 |  |  |  |  |  |  |  |  |  |  |  | 
C/C(=C\c1ccccc1)c1ccc2c(c1)C(C)(C)CC2(C)C [d, 1,1,3,3-tetramethyl-5-[(E)-α-methylstyryl]indane] |  |  | 125 μm | 27% |  |  |  |  |  |  |  |  |  | 
COc1ccc(/C=C(\C)c2ccc3c(c2)C(C)(C)CCC3(C)C)cc1 [c, 1,2,3 4-tetrahydro-6-[(E)-p-methoxy-α-methylstyryl]-1,1,4,4-tetramethylnaphthalene] |  | 24.0 | 91 μm | 27% | 61 μm | 51% | 1.04 | 56 % of controls | 78 % of controls | 92 % of controls | 43 % of controls | 32 % of controls | 85 % of controls | 2.0
C/C(=C\c1ccc(F)cc1)c1ccc2c(c1)C(C)(C)CCC2(C)C [a, (E)-6-(p-fluoro-α-methylstyryl)-1,2,3,4-tetrahydro-1,1,4,4-tetramethylnaphthalene] | 67% |  |  |  | 117 μm | 21% | 0.87 | 47 % of controls | 22 % of controls | 72 % of controls | 42 % of controls | 22 % of controls | 69 % of controls | 
CC1=C(/C=C/C(C)=C/C=C/C(C)=C/C(=O)O)C(C)(C)CCC1 [all-Trans-retinoic acid, reference compound] |  |  |  |  |  |  | 1 |  |  |  |  |  |  | 
C/C(=C\c1ccc(Br)cc1)c1ccc2c(c1)C(C)(C)CCC2(C)C [b, (E)6-(p-Bromo-methylstyryl)-1,2,3,4-tetrahydro-1,1,4,4-tetramethylnaphthaene] | 65% | 1.6 |  |  | 131 μm | 19% | 0.77 | 87 % of controls | 90 % of controls | 106 % of controls | 87 % of controls | 43 % of controls | 99 % of controls | 
C/C(=C\c1ccc(I)cc1)c1ccc2c(c1)C(C)(C)CCC2(C)C [e, (E)-6-[p-iodo-α-methylstyryl]-1,2,3,4-tetrahydro-1,1,4,4-tetramethylnaphthalene] | 71% |  |  |  |  |  |  |  |  |  |  |  |  | 
